# Experimental data reported in patent publication US20250129430A1, “HIGH ATP-AFFINITY PROTEIN AS THERAPEUTIC TARGET FOR INTRACTABLE CANCER MOLECULAR SUBTYPES AND INHIBITOR THEREOF” (VeraVerse Co., Ltd., priority 2021, published 2025).
# Key:
# Experiment in all cases: Cell viability drug screen, 12-point dose-response AUC
# Format in all cases: cell-based, human
# [1] = tested on: SNU16; details: SNU16 cells; 72 hours
# Procedure, shortened: (§1)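 Luminescent viability readings, taken 15 min after reagent addition at room temperature, were normalized to the 0.5% DMSO control to build 12-point dose-response curves. Trapezoidal integration gave the AUC. Cells had been plated at 5×10^3 per well and then exposed to half-log dilutions for 72 h.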
# [2] = tested on: KATO3; details: KATO3 cells; 72 hours
# Procedure, shortened: as §1
# [3] = tested on: SNU1967; details: SNU1967 cells; 72 hours
# Procedure, shortened: as §1
# [4] = tested on: SK4; details: SK4 cells (SEM subtype); 72 hours
# Procedure, shortened: as §1
# [5] = tested on: SNU1; details: SNU1 cells; 72 hours
# Procedure, shortened: as §1
# [6] = tested on: SNU484; details: SNU484 cells (SEM subtype); 72 hours
# Procedure, shortened: as §1
# [7] = tested on: SNU216; details: SNU216 cells (non-SEM subtype); 72 hours
# Procedure, shortened: (§2)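 Each cell line receives a twelve-point half-log titration of drug beginning 24 h after plating 5×10^3 cells per well. Following 72 h culture at 37 °C, luminescent signal is recorded and expressed versus vehicle. AUC is derived by the trapezoidal method.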
# [8] = tested on: YCC3; details: YCC3 cells; 72 hours
# Procedure, shortened: as §1
# [9] = tested on: SNU1750; details: SNU1750 cells (SEM subtype); 72 hours
# Procedure, shortened: as §1
# [10] = tested on: NCC20; details: NCC20 cells; 72 hours
# Procedure, shortened: as §1
# [11] = tested on: SNU719; details: SNU719 cells; 72 hours
# Procedure, shortened: as §2
# [12] = tested on: NCC59; details: NCC59 cells; 72 hours
# Procedure, shortened: as §1
# [13] = tested on: YCC11; details: YCC11 cells (SEM subtype); 72 hours
# Procedure, shortened: as §1
# [14] = tested on: MKN28; details: MKN28 cells; 72 hours
# Procedure, shortened: as §1
# [15] = tested on: MKN1; details: MKN1 cells; 72 hours
# Procedure, shortened: as §1
# [16] = tested on: SNU638; details: SNU638 cells; 72 hours
# Procedure, shortened: as §1
# [17] = tested on: SNU601; details: SNU601 cells; 72 hours
# Procedure, shortened: as §1
# [18] = tested on: OCUM1; details: OCUM1 cells; 72 hours
# Procedure, shortened: as §1
# [19] = tested on: NCC24; details: NCC24 cells; 72 hours
# Procedure, shortened: as §1
# [20] = tested on: AGS; details: AGS cells (non-SEM subtype); 72 hours
# Procedure, shortened: as §2
# [21] = tested on: Hs746T; details: Hs746T cells (SEM subtype); 72 hours
# Procedure, shortened: as §1
# [22] = tested on: NCI_N87; details: NCI_N87 cells; 72 hours
# Procedure, shortened: as §1
# [23] = tested on: SNU668; details: SNU668 cells (SEM subtype); 72 hours
# Procedure, shortened: as §1
# [24] = tested on: MKN45; details: MKN45 cells (non-SEM subtype); 72 hours
# Procedure, shortened: as §2
# [25] = tested on: NCC19; details: NCC19 cells; 72 hours
# Procedure, shortened: as §1
# [26] = tested on: SNU620; details: SNU620 cells; 72 hours
# Procedure, shortened: as §1
# [27] = tested on: MKN74; details: MKN74 cells; 72 hours
# Procedure, shortened: as §2
# [28] = tested on: YCC2; details: YCC2 cells; 72 hours
# Procedure, shortened: as §1
# [29] = tested on: FU97; parameters: Average Area Under the Viability Curve (AUC), AUC norm value: scale not given here; details: FU97 cells; 72 hours
# Procedure, shortened: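 Trapezoidal AUC of a 12-point, DMSO-normalized dose-response curve. Luminescent viability was measured after 72 h of exposure at 37° C to half-log serial dilutions (0.5% DMSO control), dosed 24 h after plating FU97 cells at 5×10^3 per well.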
Compound,"Average Area Under the Viability Curve (AUC), AUC norm value [1]","Average Area Under the Viability Curve (AUC), AUC norm value [2]","Average Area Under the Viability Curve (AUC), AUC norm value [3]","Average Area Under the Viability Curve (AUC), AUC norm value [4]","Average Area Under the Viability Curve (AUC), AUC norm value [5]","Average Area Under the Viability Curve (AUC), AUC norm value [6]","Average Area Under the Viability Curve (AUC), AUC norm value [7]","Average Area Under the Viability Curve (AUC), AUC norm value [8]","Average Area Under the Viability Curve (AUC), AUC norm value [9]","Average Area Under the Viability Curve (AUC), AUC norm value [10]","Average Area Under the Viability Curve (AUC), AUC norm value [11]","Average Area Under the Viability Curve (AUC), AUC norm value [12]","Average Area Under the Viability Curve (AUC), AUC norm value [13]","Average Area Under the Viability Curve (AUC), AUC norm value [14]","Average Area Under the Viability Curve (AUC), AUC norm value [15]","Average Area Under the Viability Curve (AUC), AUC norm value [16]","Average Area Under the Viability Curve (AUC), AUC norm value [17]","Average Area Under the Viability Curve (AUC), AUC norm value [18]","Average Area Under the Viability Curve (AUC), AUC norm value [19]","Average Area Under the Viability Curve (AUC), AUC norm value [20]",also measured
"Nc1nc(F)nc2c1ncn2[C@@H]1O[C@H](COP(=O)(O)O)[C@@H](O)[C@@H]1O [Fludarabine Phosphate (Fludara), Fludarabine Phosphate]",−0.44,1.165,2.186,−1.653,−0.7644,1.309,1.771,0,1.972,−2.507,2.046,1.479,−0.6417,0.00328,0.9748,0.5006,−0.5439,−0.3967,1.037,−2.783,"Average Area Under the Viability Curve (AUC), AUC norm value [21]: 1.97; Average Area Under the Viability Curve (AUC), AUC norm value [22]: −0.06169; Average Area Under the Viability Curve (AUC), AUC norm value [23]: −1.511; Average Area Under the Viability Curve (AUC), AUC norm value [24]: −1.029; Average Area Under the Viability Curve (AUC), AUC norm value [25]: 2.411; Average Area Under the Viability Curve (AUC), AUC norm value [26]: −2.289; Average Area Under the Viability Curve (AUC), AUC norm value [27]: −0.1731; Average Area Under the Viability Curve (AUC), AUC norm value [28]: −0.7765; Average Area Under the Viability Curve (AUC), AUC norm value [29]: 2.928"
"Nc1ccn([C@@H]2O[C@H](CO)[C@@H](O)C2(F)F)c(=O)n1 [Gemcitabine (Gemzar), Gemcitabine]",0.514,4.1466,−4.705,−0.8764,−0.3367,−0.2757,1.837,0.1853,0,−0.9089,3.628,3.024,−1.649,1.089,−0.9169,−2.404,0.2471,−1.402,−1.1,−2.364,"Average Area Under the Viability Curve (AUC), AUC norm value [21]: 1.71; Average Area Under the Viability Curve (AUC), AUC norm value [22]: 1.33; Average Area Under the Viability Curve (AUC), AUC norm value [23]: −1.312; Average Area Under the Viability Curve (AUC), AUC norm value [24]: 1.053; Average Area Under the Viability Curve (AUC), AUC norm value [25]: 1.697; Average Area Under the Viability Curve (AUC), AUC norm value [26]: −1.64; Average Area Under the Viability Curve (AUC), AUC norm value [27]: −1.402; Average Area Under the Viability Curve (AUC), AUC norm value [28]: 0.1111; Average Area Under the Viability Curve (AUC), AUC norm value [29]: 1.888"
"CC(C)n1nc(-c2ccc3oc(N)nc3c2)c2c(N)ncnc21 [INK 128 (MLN0128), INK 128]",−0.8733,1.633,−0.4728,−2.931,1.281,−1.089,−0.9082,0.8535,−1.079,−2.568,3.8255,1.541,−2.648,1.195,−0.7444,0.2387,1.346,0.03105,0.7502,−1.244,"Average Area Under the Viability Curve (AUC), AUC norm value [21]: −1.821; Average Area Under the Viability Curve (AUC), AUC norm value [22]: 0.7081; Average Area Under the Viability Curve (AUC), AUC norm value [23]: 1.085; Average Area Under the Viability Curve (AUC), AUC norm value [24]: −0.5935; Average Area Under the Viability Curve (AUC), AUC norm value [25]: 0.3022; Average Area Under the Viability Curve (AUC), AUC norm value [26]: 0.08832; Average Area Under the Viability Curve (AUC), AUC norm value [27]: −0.4883; Average Area Under the Viability Curve (AUC), AUC norm value [28]: 0; Average Area Under the Viability Curve (AUC), AUC norm value [29]: −2.857"
Cn1cc(CNCC2CCN(c3ncc(C(=O)NO)cn3)CC2)c2ccccc21 [JNJ-26481585],−0.7883,0.3482,−1.0365,−0.3258,−0.984,0,0.3424,0.3561,−0.8596,−1.396,3.527,3.687,0.08841,−0.5312,0.558,0.1995,1.501,0.02955,−1.592,−1.073,"Average Area Under the Viability Curve (AUC), AUC norm value [21]: 0.2906; Average Area Under the Viability Curve (AUC), AUC norm value [22]: −0.2649; Average Area Under the Viability Curve (AUC), AUC norm value [23]: 1.486; Average Area Under the Viability Curve (AUC), AUC norm value [24]: 2.743; Average Area Under the Viability Curve (AUC), AUC norm value [25]: 0.3912; Average Area Under the Viability Curve (AUC), AUC norm value [26]: −1.2467; Average Area Under the Viability Curve (AUC), AUC norm value [27]: −0.06428; Average Area Under the Viability Curve (AUC), AUC norm value [28]: −0.1018; Average Area Under the Viability Curve (AUC), AUC norm value [29]: −0.6324"
